The text below walks through data of US11279744B2, “Neuropeptide Y fragment capable of releasing hematopoietic stem cells into blood and treating osteoporosis” (Kyungpook National University Industry-Academic Cooperation …, priority 2017, dated 2022).

Non-standard residues stand in square brackets, D forms with d. No end group written: not given here.

The nature of the test: weight change in animal models of osteoporosis (OVX). Type of test: in vivo, mouse. Particulars: OVX mice, 50 μg/kg intraperitoneally twice a day for 4 weeks; weighed weekly; vs PBS group that gained weight. The procedure: To make an osteoporosis model, 10-18 12 weeks old female mice per group underwent ovarian ablation. A week later, 50 μg/kg of NPY(21-28), NPY D^25(21-28), NPY D^26(21-28), NPY D^25,26(21-28), Osteopep2, NPY and 100 μl of PBS(Gibco) were intraperitoneally administered twice a day for 4 weeks at 12 hour intervals. Alendronate (Sigma), used as a competitive drug, was intraperitoneally administered once a week for 4 weeks at a dose of 50 μg/kg. As a control group, only Sham model of osteoporosis was performed by subcutaneous dissection of female mouse. Mice were placed in experimental groups using the Block randomization method, and all mouse experiments were approved through the Kyungpook National University Institutional Animal Care and Use Committee.
In order to investigate whether the NPY (21-28) of the present invention affects the blood release of myelopoiesis stem cells in the animal models of osteoporosis, the following experiments were carried out according to the methods of Examples 1-1, 1-3, 1-4, and 1-5. In order to make animal models of osteoporosis, 12 weeks old C57BL/6 female mice were subjected to ovarian ablation for 10 to 18 animals in each group. One week later, 50 μg/kg of NPY (21-28) and 100 μl of PBS (Gibco) were intraperitoneally administered twice a day for 4 weeks at 12 hour intervals. As a control group, mice that underwent only subcutaneous incisions in normal mice were used. Weight change was measured weekly, and bone marrow and blood were collected one hour after the last dose at 4 weeks, and the release of myelopoiesis progenitor and stem cells into blood was analyzed. […]
In order to investigate the effect of NPY (21-28) of the present invention on weight gain induced by osteoporosis, body weight was measured once a week for a total of 4 weeks of NPY (21-28) injection. […]
In order to investigate the effects of NPY D^25(21-28), NPY D^26(21-28), and NPY D^25,26(21-28) of the present invention on weight gain induced by osteoporosis, body weight was measured once a week for a total of 4 weeks in which each peptide was injected.
With “NPY D^25(21-28): peptide in which arginine, the fifth amino acid of the amino acid sequence of NPY (21-28), is modified to D-type (YSAL[dR]HYI)”, the weight change entry is given as “did not change in weight”.
The value for “NPY D^25,26(21-28): peptide in which both the fifth and sixth amino acids of NPY (21-28) are modified to D-form (YSAL[dR][dH]YI)” was “did not change in weight”; that for YSALRHYI [NPY (21-28)] was “did not change in weight”.
